Measurements taken from patent US10106519B2, “3-phenyl-7-hydroxy-isocoumarins as macrophage migration inhibitory factor (MIF) inhibitors” (The Provost, Fellows, Foundation Scholars, & the Other …, priority 2014, dated 2018).
“Also recorded” adds a separate entry of the source.

Tests used:
[1] = molecular target: T1, MIF tautomerase (Homo sapiens, UniProt P14174); assay: MIF tautomerase inhibition assay; assay type: biochemical; conditions: structure activity relationship studies (FIG. 10)
T1 construct: host or cells: E. coli BL21
T1 sequence (P14174 2-115 limits assumed): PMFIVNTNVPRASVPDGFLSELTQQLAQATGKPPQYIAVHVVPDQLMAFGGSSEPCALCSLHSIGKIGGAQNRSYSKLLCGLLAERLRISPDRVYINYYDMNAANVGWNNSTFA
Experimental: Human recombinant MIF was purified as per Bernhagen et al. (Biochemistry, 1994. 33(47): p. 14144-55). Briefly, BL21 E. coli cells expressing the pET11b-MIF construct were grown to an absorbance at 600 nm (OD) of […]. Isopropyl 1-thio-P-D-galactopyranoside (IPTG) (Sigma—cat no. 16758) was added to a final concentration of 1 mM to induce expression of the MIF gene and incubated for another 3 hours. Bacteria were then harvested by centrifugation and the cell pellets were then frozen. Protein purification was then out sourced to Scottish Biomedical, where the bacterial pellets were thawed and resuspended in 3 ml of Tris-buffered saline. The bacteria were then lysed by adding an equivalent number of glass beads and vortexing strongly for 10 minutes. Glass beads were removed by centrifugation at 1000 g for 10 minutes and the bacterial extract was centrifuged at 1000 g for a further 30 minutes. The supernatant was then sterile-filtered through a […] membrane filter and put through a MONO Q anion exchange chromatography column. MIF was eluted using Tris-buffered saline in the first flow-through fractions and pooled and placed on ice. These pooled fractions were then applied to a C8-SepPak reverse phase column. Unbound material was eluted by washing with water and 20% acetonitrile/water. MIF was then eluted using 6 column volumes of 60% acetonitrile/water. This sample was then renatured by dissolving MIF at a concentration of […] in 20 mM sodium phosphate buffer containing 8M urea and 5 mM DTT and dialysed against 20 mM sodium phosphate buffer. […]
L-dopachrome methyl ester was prepared at 2.4 mM through oxidation of L-3,4-dihydroxyphenylalanine methyl ester with sodium periodate. The solution was mixed well and placed at room temperature for 5 minutes before being placed on ice in the dark. 100 ng of rMIF was added to each of the Tautomerase Inhibitors or ISO-1 at a number of concentrations (1, 50 and 100 μM) with substrate. The decrease in absorbance was measured with a spectrophotometer at 475 nm every 10 seconds for 10 minutes.
The rate of the reaction of rMIF and substrate alone was measured over time at 475 nm. This was compared to the rate of this reaction with the addition of 100 μM of each of the inhibitors. Inhibition was calculated as the percentage in the reduction of the rate of change with the addition of the inhibitor averaged over five minutes.

[2] = test system: LPS induced TNF-α production; assay: Inhibition of LPS induced TNF-α production in RAW 264.7 macrophage cells (ELISA); assay type: cell-based, mouse
Experimental: RAW 264.7 macrophage cells were plated at 1×10^5/ml in 450 μl of medium in a 48 well plate. 16 hours later cells were treated with ISO-1 or Tautomerase Inhibitors at a final concentration of 10, 50 or 100 μM for 30 minutes before stimulation with 100 ng/ml LPS. Supernatants were collected after 20 hours for determination of TNF-α levels. TNF-α levels were determined using a TNF-α specific ELISA (CAT # DY410 R&D Syst).
96 well plates were coated with 50 μl of Capture Antibody ([…]) in PBS and sealed and incubated overnight at 4° C. Plates were then washed three times in 0.05% PBS Tween and plates blotted. Plates were blocked by adding 150 μl of 1% BSA in PBS (Gibco—cat no. 14190-094) to each well and incubated at room temperature for 2 hours. Plates were washed again as previously described. 50 μl of sample or standard was added to each well and incubated for overnight at 4° C. Plates were then washed again as described. 50 μl of the detection Antibody (200 ng/ml) in 1% BSA in PBS was added to each well and incubated for 2 hours at room temperature. Plates were then washed again as described. 50 μl of working concentration of Streptavidin—HRP was added to each well and plates were covered and incubated for 20 minutes at room temperature. 50 μl of substrate solution (One OPD tablet and one urea hydrogen peroxide/buffer tablet were dissolved in 20 ml of water to yield a ready to use buffered solution, Sigma—cat no. 9187-50) was added to each well and incubated for 20 minutes at room temperature. 25 μl of 2N H2SO4 was added to each well to stop the reaction. The optical density of each well was then measured with a spectrophotometer at 450 nm.
Initially the panel of 25 novel potential tautomerase inhibitors was screened in an in-vitro system. In order to do this we exploited the fact that MIF is needed for optimal LPS induced TNF-α production. We therefore reasoned that our potential TIs should be able to inhibit LPS induced TNF-α in RAW macrophage murine cells. RAW macrophage murine cells were plated at 37° C. in a humidified 5% CO2 incubator. 16 hours later the cells were pre-treated with each of the inhibitors at concentration of 100, 50 or 10 μM for 30 minutes 100 ng/ml of LPS was then added to the cells and supernatants were collected after 16 hours and analysed for TNF-α production by ELISA.

[3] = test system: LPS mediated PGE-2 production; assay: PGE-2 production in LPS treated RAW macrophage cells (ELISA); assay type: cell-based, murine; conditions: 100 μM inhibitor, 100 ng/ml LPS (FIG. 4)
Experimental: Raw macrophage murine cells were plated at a cell density of 1×10^5 and pre-treated with 100 μM of each of the inhibitors […] for 30 minutes at 37° C. in a humidified 5% CO2 incubator. Raw macrophage cells were then treated with 100 ng/ml of LPS and supernatants were collected after 16 hours at 37° C. in a humidified 5% CO2 incubator and analysed for PGE-2 production. Levels of PGE-2 were measured by ELISA. (CAT # KGE004 R&D Syst).

[4] = test system: Lewis Lung carcinoma cells (LLC); assay: LLC-GLuc proliferation assay with rMIF; assay type: cell-based, mouse; conditions: 100 μM inhibitor, 100 ng/ml rMIF, 48 hours (FIG. 5)
Experimental: LLC-GLuc cells were plated in a 6 well plate at a density of 5×10^4 cells/ml in DMEM supplemented with P/S, 10% FCS and L-Glu. After overnight adherence, 100 ng/ml MIF was added along with the inhibitors or DMSO to a total of 1 ml serum free medium. Cells were harvested after 48 hours by trypsinisation and counted in a haemocytometer.
The ability of candidate compounds to reduce cellular proliferation was also examined. For this assay, LLC cells were plated at a cell density of 5×10^4 cells/ml. The cells were then pre-treated with TI 19 or ISO-1 at a concentration of 100 μM. The cells were then treated with 100 ng/ml of recombinant MIF. The cells were incubated at 37° C. in a humidified 5% CO2 incubator and after 48 hours the cells were harvested and counted.

[5] = test system: Lewis Lung carcinoma cells; assay: Subcutaneous LLC1 tumour model with in vivo tautomerase inhibitor treatment; design: species or system C57BL/6 mice; conditions: 35 mg/kg intraperitoneally 30 min prior to inoculation and twice weekly, day 28 (FIG. 8)
Experimental: Log phase cultures of LLC-1 cells were harvested by trypsinisation and washed three times with sterile phosphate buffered saline (PBS) and resuspended at a cell density of 5×10^5/ml in PBS. Animals were shaved with an electric shaver 24 hours before subcutaneous injection. 5×10^5 Lewis Lung cells were injected subcutaneously into the left flank of C57BL/6 mice of 6-8 weeks. Animals were monitored for the duration of the experiment and tumour measurements were recorded twice weekly with a digital callipers. Tumour volume (mm^3) was calculated as 0.5×L×W^2, where length is representative of the larger tumour diameter and the width represents the smaller tumour diameter. Animals are sacrificed when tumours reach a diameter of 15 mm or if tumours become ulcerated. Tumours are then removed along with the lungs, spleen and liver.
30 minutes prior to LLC-1 inoculation, inhibitors (TI 19/ISO-1) were administered at a concentration of 35 mg/kg in a volume of 100 μl 5% DMSO in sterile PBS. Control groups were given injections of vehicle 5% DMSO in sterile PBS or sterile PBS alone. Animals were treated twice weekly for four weeks.
In order to assess the antitumour activity of the novel tautomerase inhibitors in vivo, a subcutaneous LLC-1 cell model was set up. The subcutaneous model was chosen so that tumours could be easily visualised and measured during the course of the experiment and to allow assessment of the growth of the tumour in real time. Lewis Lung carcinoma cells (5×10^5) were injected sub-cutaneously into the left flank of C57BL/6 mice. Caliper measurements were taken twice weekly and tumour volume (mm^3) was calculated as 0.5×L×W^2. […] The cut off point for this model was when the tumour measured 15 mm in diameter. This model gave us an indication of normal tumour growth in this subcutaneous model. It can be seen from this model that from day 22 to day 28 the size of the tumour grows considerably.
Once it was determined that the enzymatic activity played a role in the growth of tumours, the subcutaneous LLC model was then used to assess the efficiency of the small weight molecular inhibitors. C57/B16 mice were injected intraperitoneally with 35 mg/kg of each of the inhibitors 30 minutes prior to subcutaneous tumour inoculation and again twice weekly for 4 weeks. Animals were monitored daily and tumour measurements taken until the tumour measured 15 mm in diameter.

[6] = test system: LPS induced TNF-α production; conditions: RAW 264.7 cell line, previously shown; cited from earlier work
[7] = test system: circulating levels of TNF-α; conditions: LPS induced model of murine sepsis; cited from earlier work
[8] = test system: PGE-2; conditions: increasing concentrations; cited from earlier work
[9] = test system: prostate cancer cells; conditions: cited from earlier work
[10] = comparative analysis, same assay

## Cc1ccccc1-c1cc2ccc(O)cc2c(=O)o1 [SDG-22, 3-(2′-methylphenyl)-7-hydroxyisocoumarin]
[1]
  inhibition of MIF tautomerase activity, analogues of TI 19: > 90%
  tautomerase inhibitory activity of analogues, in words: very effective inhibitor of MIF tautomerase; also recorded: most effective tautomerase inhibitor identified to date; also recorded: significantly more potent than TI 19
[2]; LPS stimulated RAW macrophage murine cells, 100 μM (FIG. 11)
  reduction of TNF-α production, comparative analysis: 97%
[2]; [10]
  more effective than ISO-1 in reducing TNF-α production: 80%
  more effective than TI 19 in reducing TNF-α production: 10%
[2]; concentration not given
  reduction of TNF-α production, in words: significant reduction in TNF-α production

## Cc1ccccc1-c1cc2cc(O)c(O)cc2c(=O)o1 [SDG-54, 3-(2′-methylphenyl)-6,7-hydroxyisocoumarin]
[1]
  inhibition of MIF tautomerase activity, analogues of TI 19: 86%
  tautomerase inhibitory activity of analogues, in words: almost complete inhibition of MIF tautomerase activity

## Cc1cccc(-c2cc3ccc(O)cc3c(=O)o2)c1 [SDG-47, 3-(3′-methylphenyl)-7-hydroxyisocoumarin]
[1]
  tautomerase inhibitory activity of analogues, in words: almost complete inhibition of MIF tautomerase activity

## O=c1oc(-c2ccccc2O)cc2ccccc12 [SDG-50]
[1]
  tautomerase inhibitory activity of analogues, in words: dramatic loss in tautomerase inhibition activity

## Cc1cc2cc(-c3ccccc3C)oc(=O)c2cc1O [SDG-52, 3-(2′-methylphenyl)-6-methyl-7-hydroxyisocoumarin]
[1]
  tautomerase inhibitory activity of analogues, in words: some inhibitory activity

## Cc1cc2ccccc2c(=O)o1 [SDG-40]
[1]
  tautomerase inhibitory activity of analogues, in words: dramatic loss of inhibitory activity

## COc1cc2c(=O)oc(-c3ccccc3C)cc2cc1C [SDG-51, 3-(2′-methylphenyl)-6-methyl-7-methoxyisocoumarin]
[1]
  tautomerase inhibitory activity of analogues, in words: did not significantly inhibit MIF tautomerase

## O=c1oc(-c2ccccc2)cc2ccccc12 [SDG-46]
[1]
  tautomerase inhibitory activity of analogues, in words: inactivity

## COc1ccc2cc(-c3ccccc3C)oc(=O)c2c1 [SDG-23]
[1]
  tautomerase inhibitory activity of analogues, in words: did not significantly inhibit MIF tautomerase

## Cc1ccccc1-c1cc2ccccc2c(=O)[nH]1 [SDG-42]
[1]
  tautomerase inhibitory activity of analogues, in words: ineffective as a tautomerase inhibitor

## COC(=O)CC1CC(c2ccc(O)cc2)=NO1 (stereo not shown) [ISO-1, reference compound]
[2]; 100 μM inhibitor 30 minutes before 100 ng/ml LPS (FIG. 2A)
  reduction of TNF-α production: 20%
[3]
  reduction of LPS mediated PGE-2 production, in words: significantly reduces
[4]
  reduction of MIF induced proliferation, in words: less so; also recorded: reduced the MIF induced proliferation
[5]
  reduction in tumour growth / tumour size: over 50%
[6]
  TNF-α production induced by LPS, in words: inhibit TNF-α production induced by addition of LPS
[7]
  circulating levels of TNF-α, in words: reduce circulating levels of TNF-α
[8]
  production of PGE-2, in words: reduce the production of PGE-2 in a dose dependant manner
[9]
  cell proliferation, in words: decreased cell proliferation in prostate cancer cells

## COc1cc2cc(-c3ccccc3C)oc(=O)c2cc1OC [SDG-53, 3-(2′-methylphenyl)-6,7-dimethoxyisocoumarin]
[1]
  tautomerase inhibitory activity of analogues, in words: did not significantly inhibit MIF tautomerase
